Test results as given in patent US20240417390A1, “HYDROGEN SULFATE SALT OF A BCL-2 INHIBITOR, RELATED CRYSTALLINE FORM, METHOD FOR PREPARING THE SAME AND PHARMACEUTICAL COMPOSITIONS CONTAINING THE SAME” (LES LABORATOIRES SERVIER, priority 2018, published 2024).

Experiment: Solubility in water
Assay type: physicochemical
Conditions: free base
Protocol: Although Compound A is a very promising drug, it is a difficult compound to formulate. In particular, it is […] in water (<0.01 mg/ml for the free base). […] In addition, different polymorphs can have different rates of uptake in the body, leading to lower or higher biological activity than desired. In extreme cases, an undesired polymorph can even show toxicity. […] However, even though polymorphism has been a subject for intensive investigations, understanding and controlling this phenomenon represents a substantial scientific challenge. It is hard to predict whether a given molecule will crystallize in one or several crystal forms, and to find conditions leading to such crystallization.

Structure (SMILES): Cc1c(N(C(=O)c2cc(-c3cc(Cl)ccc3C(=O)N3Cc4ccccc4C[C@H]3CN3CCOCC3)n(C)c2C)c2ccc(O)cc2)cc(C#N)n1C [Compound A, 5-(5-chloro-2-{[(3S)-3-(morpholin-4-ylmethyl)-3,4-dihydroisoquinolin-2(1H)-yl]carbonyl}phenyl)-N-(5-cyano-1,2-dimethyl-1H-pyrrol-3-yl)-N-(4-hydroxyphenyl)-1,2-dimethyl-1H-pyrrole-3-carboxamide]
- solubility: < 0.01 mg/mL
